For one assay, the target named is T1, Myostatin (Homo sapiens, UniProt O14793).
T1 construct: active myostatin (also called mature myostatin) is a homodimer consisting of two C-terminal growth factor domains; purchased R&D systems 788-G8/CF
T1 sequence (O14793 267-375): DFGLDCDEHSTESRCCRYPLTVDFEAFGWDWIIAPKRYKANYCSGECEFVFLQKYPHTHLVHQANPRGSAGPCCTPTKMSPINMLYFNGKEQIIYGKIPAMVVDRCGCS
As to the kind of experiment: HepG2 reporter gene assay, Evaluation Procedure (2): 2-concentrations assay, myostatin inhibition. It counts as cell-based. The note with it: HepG2. A digest of the protocol:
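Myostatin inhibition was measured in a luciferase reporter assay using HepG2 cells transfected with a pGL3 vector containing 12 CAGA repeats upstream of luciferase. After 20 to 24 hours with 10 ng/mL myostatin, cells received One-Glo:PBS (1:1) at 100 µL/well, were shaken for 5 min, and 20 µL/well was moved to 384-well plates and read on an Envision 2104.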

The target in another assay is T2, GDF-11 (Homo sapiens, UniProt O95390).
T2 construct: purchased R&D systems 1958-GD-G8/CF
T2 sequence (O95390 299-407): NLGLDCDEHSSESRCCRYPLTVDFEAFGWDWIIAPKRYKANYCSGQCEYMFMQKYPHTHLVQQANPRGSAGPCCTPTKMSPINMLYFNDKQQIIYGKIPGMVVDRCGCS
As to the kind of experiment: HepG2 reporter gene assay, Evaluation Procedure (2): 2-concentrations assay, GDF-11 inhibition. Format: cell-based. The note with it: for inhibition at 0.03 µM: HepG2, peptide 30nM, read-out: GDF11 Inhibition 30nM; for inhibition at 0.03 µM / inhibition at 0.1 µM: GDF-11 10 ng/mL; for inhibition at 0.1 µM: HepG2, peptide 100nM, read-out: GDF11 Inhibition 100nM; for inhibition: read-out: inhibition rate (GDF-11 inhibition assay). A digest of the protocol:
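HepG2 cells carrying the transfected pGL3(CAGA)12-luc reporter, a pGL3 vector with luciferase placed downstream of 12 CAGA repeats, were stimulated with GDF-11 at a final 10 ng/mL together with test peptide. Blank wells received no GDF-11 and no peptide. Plates were incubated 20 to 24 hours at 37°C with 5% CO2. Luminescence from One-Glo substrate was read to calculate percent inhibition.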
Background: Reporter assays use an easily measured gene product as a stand-in for the process of interest.

[1] abbreviates: peptide 30nM, Myostatin 10 ng/mL, read-out: Myostatin Inhibition 30nM.
[2] abbreviates: peptide 100nM, Myostatin 10 ng/mL, read-out: Myostatin Inhibition 100nM.
Where [3] appears, read: Table 7-3/7-4, myostatin 10 ng/mL, peptide at the higher of the 2 concentrations, read-out: inhibition rate (myostatin inhibition assay).
The mark [4] stands for this setting: Table 7-3/7-4, myostatin 10 ng/mL, peptide at the lower of the 2 concentrations, read-out: inhibition rate (myostatin inhibition assay).
Where [5] appears, read: HepG2, first GDF-11 column of Table 7-3/7-4, GDF-11 10 ng/mL, peptide at the lower of the 2 concentrations.
The mark [6] stands for this setting: HepG2, second GDF-11 column of Table 7-3/7-4, GDF-11 10 ng/mL, peptide at the higher of the 2 concentrations.

Structures are written as SMILES. Where two headings read alike, the source gives them in different places. Starred links: 1 amine or outer side, 2 acyl side, 3 side chain; linkers in the order of their positions; H or OH if unused. Positions of bridges follow the written chain, without caps; N, C: chain ends. Non-standard residues stand in square brackets, D forms with d. Residues, ends and D or L forms follow the SMILES beside them. *: point of attachment. Phe(3-OCH2COOH) = N[C@@H](Cc1cccc(OCC(=O)O)c1)C(=O)O; Trp(6-OH) = N[C@@H](Cc1c[nH]c2cc(O)ccc12)C(=O)O; Phe(4-COOH) = N[C@@H](Cc1ccc(C(=O)O)cc1)C(=O)O; Trp(7-aza) = N[C@@H](Cc1c[nH]c2ncccc12)C(=O)O; NMePhe(4-Cl) = CN[C@@H](Cc1ccc(Cl)cc1)C(=O)O; Piperazinyl(4-CH2COOH) = O=C(O)CN1CCN(*)CC1; Gly(N(CH2)3COOH) = O=C(O)CCCNCC(=O)O; Gly(octyl) = CCCCCCCC[C@H](N)C(=O)O; X1 = CCCCCCC[C@H](N[*:1])C(=O)[*:2]; Gly(N-(CH2)3OMe) = COCCCNCC(=O)O; NMeF = CN[C@@H](Cc1ccccc1)C(=O)O; 3Pal = N[C@@H](Cc1cccnc1)C(=O)O; 4Pal = N[C@@H](Cc1ccncc1)C(=O)O; NMeA = CN[C@@H](C)C(=O)O; Dap = NC[C@H](N)C(=O)O; Sar = CNCC(=O)O

What is called inhibition is the percentage by which the read-out fell short of the control.

For `CCCCCCC[C@@H]1NC(=O)[C@H](Cc2ccccc2)N(C)C(=O)[C@H](CCCNC(=N)N)NC(=O)[C@H](Cc2ccncc2)NC(=O)[C@H](Cc2cccc(OCC(=O)O)c2)NC(=O)CN(C)C(=O)[C@H]([C@@H](C)CC)NC(=O)[C@H](Cc2ccccc2)N(C)C(=O)[C@H](Cc2ccc(O)cc2)NC(=O)[C@H](Cc2c[nH]c3ccccc23)NC(=O)[C@@H](CCC(=O)O)NC(=O)[C@H](C)NC(=O)CSC[C@H](C(=O)O)NC(=O)[C@H](Cc2ccccc2)N(C)C(=O)[C@H](C)N(C)C1=O` [Myostatin_99_v218] ({CH2CO}-A[dE]WY[NMeF]I[Sar][Phe(3-OCH2COOH)][4Pal]R[NMeF][X1][NMeA][NMeF][dC]-OH; thioether N-15), the inhibition at 0.03 µM on Myostatin (setting [1]) was 44%; at GDF-11 it was 0%. Besides, the inhibition at 0.1 µM amounted to 74% at Myostatin (setting [2]) and 0% at GDF-11.

On to `CCCCCCCC[C@@H]1NC(=O)[C@H](Cc2ccccc2)N(C)C(=O)[C@H](CCCNC(=N)N)NC(=O)[C@H](Cc2ccc(C(=O)O)cc2)NC(=O)[C@H](Cc2cccc(OCC(=O)O)c2)NC(=O)CN(C)C(=O)[C@H]([C@@H](C)CC)NC(=O)[C@H](Cc2ccccc2)N(C)C(=O)[C@H](Cc2ccc(O)cc2)NC(=O)[C@H](Cc2c[nH]c3cc(O)ccc23)NC(=O)[C@H](C)NC(=O)CN(CCCOC)C(=O)CSC[C@H](C(N)=O)NC(=O)[C@H](Cc2ccccc2)N(C)C(=O)[C@H](C)N(C)C1=O` [Myostatin_99_v414] ({CH2CO}-[Gly(N-(CH2)3OMe)]A[Trp(6-OH)]Y[NMeF]I[Sar][Phe(3-OCH2COOH)][Phe(4-COOH)]R[NMeF][Gly(octyl)][NMeA][NMeF][dC]-NH2; thioether N-15), for which the inhibition at 0.1 µM at Myostatin (setting [3]) was found to be 100%. Further, the inhibition at 0.03 µM at Myostatin (setting [4]) was 100%. The inhibition amounted to 0% at GDF-11 (setting [5]) and 44% on GDF-11 (setting [6]).

For `CCCCCCC[C@@H]1NC(=O)[C@H](Cc2ccccc2)N(C)C(=O)[C@H](CCCNC(=N)N)NC(=O)[C@H](Cc2ccc(C(=O)O)cc2)NC(=O)[C@H](Cc2cccc(OCC(=O)O)c2)NC(=O)[C@H](C)N(C)C(=O)[C@H]([C@@H](C)CC)NC(=O)[C@H](Cc2ccccc2)N(C)C(=O)[C@H](Cc2ccc(O)cc2)NC(=O)[C@H](Cc2c[nH]c3ccccc23)NC(=O)[C@H](C)NC(=O)CN(CCCC(=O)O)C(=O)CSC[C@H](C(=O)N2CCN(CC(=O)O)CC2)NC(=O)[C@H](Cc2ccccc2)N(C)C(=O)[C@H](C)N(C)C1=O` [Myostatin_99_v429] ({CH2CO}-[Gly(N(CH2)3COOH)]AWY[NMeF]I[NMeA][Phe(3-OCH2COOH)][Phe(4-COOH)]R[NMeF][X1][NMeA][NMeF][dC]-{Piperazinyl(4-CH2COOH)}; thioether N-15), the inhibition at 0.1 µM on Myostatin (setting [3]) came to 100%. The inhibition at 0.03 µM at Myostatin (setting [4]) was 100%. The inhibition on GDF-11 (setting [5]) and at GDF-11 (setting [6]) was 0% in each case.

In the case of `CC[C@H](C)[C@@H]1NC(=O)[C@H](Cc2ccccc2)N(C)C(=O)[C@H](Cc2ccc(O)cc2)NC(=O)[C@H](Cc2c[nH]c3ccccc23)NC(=O)[C@H](C)NC(=O)[C@H](C)NC(=O)CSC[C@@H](C(N)=O)NC(=O)[C@H](Cc2ccccc2)N(C)C(=O)[C@H](C)N(C)C(=O)[C@H](CC(C)C)NC(=O)[C@H](Cc2ccccc2)N(C)C(=O)[C@H](CCCNC(=N)N)NC(=O)[C@H](Cc2ccc(O)cc2)NC(=O)[C@H](Cc2ccc(O)cc2)NC(=O)CN(C)C1=O` [Myostatin_000099_02A] ({CH2CO}-AAWY[NMeF]I[Sar]YYR[NMeF]L[NMeA][NMeF]C-NH2; thioether N-15), the inhibition at 0.03 µM at Myostatin (setting [1]) was found to be 64%; on GDF-11, 0%. Also, the inhibition at 0.1 µM was determined as 89% on Myostatin (setting [2]) and 5% at GDF-11.

Take `CC[C@H](C)[C@@H]1NC(=O)[C@H](Cc2ccccc2)N(C)C(=O)[C@H](Cc2ccc(O)cc2)NC(=O)[C@H](Cc2c[nH]c3ncccc23)NC(=O)[C@H](C)NC(=O)CN(CCCC(=O)O)C(=O)CSC[C@H](C(N)=O)NC(=O)[C@H](Cc2ccccc2)N(C)C(=O)[C@H](C)N(C)C(=O)[C@H](CC(C)C)NC(=O)[C@H](Cc2ccccc2)N(C)C(=O)[C@H](CCCNC(=N)N)NC(=O)[C@H](Cc2cccnc2)NC(=O)[C@H](Cc2ccccc2)NC(=O)CN(C)C1=O` [Myostatin_99_Variant_22] ({CH2CO}-[Gly(N(CH2)3COOH)]A[Trp(7-aza)]Y[NMeF]I[Sar]F[3Pal]R[NMeF]L[NMeA][NMeF][dC]-NH2; thioether N-15): the inhibition at 0.03 µM was 45% at Myostatin (setting [1]) and 0% at GDF-11. Also, the inhibition at 0.1 µM on Myostatin (setting [2]) came to 72%; on GDF-11, 0%.

As to `CC[C@H](C)[C@@H]1NC(=O)[C@H](Cc2ccccc2)N(C)C(=O)[C@H](Cc2ccc(O)cc2)NC(=O)[C@H](Cc2c[nH]c3ccccc23)NC(=O)[C@H](CCCCN)NC(=O)[C@H](C)NC(=O)CSC[C@@H](C(N)=O)NC(=O)[C@H](Cc2ccccc2)N(C)C(=O)[C@H](C)N(C)C(=O)[C@H](CC(C)C)NC(=O)[C@H](Cc2ccccc2)N(C)C(=O)[C@H](CCCNC(=N)N)NC(=O)[C@H](Cc2ccc(O)cc2)NC(=O)[C@H](Cc2ccc(O)cc2)NC(=O)CN(C)C1=O` [Myostatin_000099_02K] ({CH2CO}-AKWY[NMeF]I[Sar]YYR[NMeF]L[NMeA][NMeF]C-NH2; thioether N-15), the inhibition at 0.03 µM amounted to 35% on Myostatin (setting [1]) and 0% on GDF-11. Also, the inhibition at 0.1 µM on Myostatin (setting [2]) came out at 73%; on GDF-11, 0%.

With `CC[C@H](C)[C@@H]1NC(=O)[C@H](Cc2ccccc2)N(C)C(=O)[C@H](Cc2ccc(O)cc2)NC(=O)[C@H](Cc2c[nH]c3ccccc23)NC(=O)[C@H](C)NC(=O)CN(CCCC(=O)O)C(=O)CSC[C@H](C(=O)N[C@H](CO)C(=O)N[C@H](CO)C(=O)N[C@H](CO)C(=O)N[C@H](CCCCN)C(=O)O)NC(=O)[C@H](Cc2ccccc2)N(C)C(=O)[C@H](C)N(C)C(=O)[C@H](CC(C)C)NC(=O)[C@H](Cc2ccccc2)N(C)C(=O)[C@H](CCCNC(=N)N)NC(=O)[C@H](Cc2ccc(C(=O)O)cc2)NC(=O)[C@H](Cc2ccc(O)cc2)NC(=O)CN(C)C1=O` [Myostatin_99_v34] ({CH2CO}-[Gly(N(CH2)3COOH)]AWY[NMeF]I[Sar]Y[Phe(4-COOH)]R[NMeF]L[NMeA][NMeF][dC][dS][dS][dS][dK]-OH; thioether N-15), the inhibition at 0.03 µM at Myostatin (setting [1]) turned out to be 65%; on GDF-11, 0%. In addition, the inhibition at 0.1 µM stood at 89% on Myostatin (setting [2]) and 32% at GDF-11.

With `CCCCCCC[C@@H]1NC(=O)[C@H](Cc2ccccc2)N(C)C(=O)[C@H](CCCNC(=N)N)NC(=O)[C@H](Cc2ccc(C(=O)O)cc2)NC(=O)[C@H](Cc2cccc(OCC(=O)O)c2)NC(=O)CN(C)C(=O)[C@H]([C@@H](C)CC)NC(=O)[C@H](Cc2ccc(Cl)cc2)N(C)C(=O)[C@H](Cc2ccc(O)cc2)NC(=O)[C@H](Cc2c[nH]c3ccccc23)NC(=O)[C@H](C)NC(=O)[C@H](C)NC(=O)CSC[C@H](C(=O)N2CCN(CC(=O)O)CC2)NC(=O)[C@H](Cc2ccccc2)N(C)C(=O)[C@H](C)N(C)C1=O` [Myostatin_99_v308] ({CH2CO}-AAWY[NMePhe(4-Cl)]I[Sar][Phe(3-OCH2COOH)][Phe(4-COOH)]R[NMeF][X1][NMeA][NMeF][dC]-{Piperazinyl(4-CH2COOH)}; thioether N-15), on Myostatin (setting [3]), the inhibition at 0.1 µM stood at 97%. In addition, the inhibition at 0.03 µM on Myostatin (setting [4]) came to 87%. The inhibition on GDF-11 (setting [5]) stood at 0%; on GDF-11 (setting [6]), 3%.

For the molecule `CC[C@H](C)[C@@H]1NC(=O)[C@H](Cc2ccccc2)N(C)C(=O)[C@H](Cc2ccc(O)cc2)NC(=O)[C@H](Cc2c[nH]c3ccccc23)NC(=O)[C@H](C)NC(=O)[C@H](C)NC(=O)CSC[C@H](C(=O)N[C@@H](CN)C(N)=O)NC(=O)[C@H](Cc2ccccc2)N(C)C(=O)[C@H](C)N(C)C(=O)[C@H](CC(C)C)NC(=O)[C@H](Cc2ccccc2)N(C)C(=O)[C@H](CCCNC(=N)N)NC(=O)[C@H](Cc2ccc(O)cc2)NC(=O)[C@H](CCCCN)NC(=O)CN(C)C1=O` [Myostatin_99_Variant_11] ({CH2CO}-AAWY[NMeF]I[Sar]KYR[NMeF]L[NMeA][NMeF][dC][Dap]-NH2; thioether N-15), the inhibition at 0.03 µM on Myostatin (setting [1]) is 75%; on GDF-11, 22%. Further, the inhibition at 0.1 µM at Myostatin (setting [2]) came to 94%; at GDF-11, 26%.

Source of the values: patent EP4786487A1, “PEPTIDE” (Peptidream Inc, priority 2023, dated 2025).
